Data taken from patent publication US8008340B2, “3-arylthioindole-2-carboxamide derivatives and analogs thereof as inhibitors of casein kinase I” (Aventis Pharmaceuticals Inc., priority 2004, dated 2011).

Test system: Mper1-luc Rat-1 fibroblasts (P2C4)
Assay: Cellular Circadian Assay (Mper1-luc reporter, period lengthening)
Type: cell-based
Details: effective micromolar concentration that induced a 1 hour lengthening of period
From the text: U.S. Pat. No. 6,555,328 B1 discloses screening methods in cells to identify compounds that alter circadian rhythms based on a test compound altering the ability of human casein kinase 1ε and/or human casein kinase 1δ to phosphorylate the human clock proteins hPER1, hPER2 and hPER3. For example, HEK293T cells are co-transfected with hCKIε and Per1 or Per2. For the purpose of evaluating the relevancy of CKIε inhibition and CKIε inhibitors to circadian biology, a high-throughput cellular assay (33rd Annual Meeting, Soc. for Neurosci., Nov. 8-12, 2003, Abstract numbers 284.1, 284.2, and 284.3) was developed in which circadian rhythm could be monitored in a routine manner. The assay consists of Rat-1 fibroblasts stably expressing an Mper1-luc construct, thus enabling the determination of the rhythmic activation of the Mper1 promoter in living cells by repeatedly estimating luciferase activity by monitoring light-output over several days. The repeated measure format of the assay permits accurate and reproducible assessment of the concentration-dependent effects of CKIε inhibitors on circadian rhythm and provides the nexus for relating CKIε inhibition to circadian period alteration.
Cell culture: Mper1-luc Rat-1 fibroblasts (P2C4) cultures were split every 3-4 days (˜10-20% confluence) onto 150 cm^2 vented polystyrene tissue culture flasks (Falcon #35-5001) and maintained in growth media [EMEM (Cellgro #10-010-CV); 10% fetal bovine serum (FBS; Gibco #16000-044); and 50 I.U./mL penicillin-streptomycin (Cellgro #30-001-C1)] at 37° C. and 5% CO2. […] Zeocin-resistant stable transfectants were assessed for reporter expression by supplementing growth media with 100 μM luciferin (Promega #E1603) and assaying luciferase activity on a TopCount scintillation counter (Packard Model #C384V00). Rat-1 clones expressing both Zeocin-resistance and mPer1-driven luciferase activity were synchronized by 50% horse serum [HS (Gibco #16050-122)] serum shock and assessed for circadian reporter activity. […]

Compound	Cell Assay ECΔτ+1h [µM]
COc1ccc2[nH]c(C(N)=O)c(Sc3ccccc3N)c2c1 [Ie, 3-(2-Amino-phenylsulfanyl)-5-methoxy-1H-indole-2-carboxylic acid amide]	>10
NC(=O)c1[nH]c2ccccc2c1Sc1cccc(F)c1 [If, 3-(3-Fluoro-phenylsulfanyl)-1H-indole-2-carboxylic acid amide]	1.6
NC(=O)c1[nH]c2ccc(Br)cc2c1Sc1ccccc1N [Ig, 3-(2-Amino-phenylsulfanyl)-5-bromo-1H-indole-2-carboxylic acid amide]	1.6

Test system: not given
Assay: not given
Details: not given

Compound	melting point [°C]
O=C(c1[nH]c2ccc(F)cc2c1Sc1ccccn1)N1CCCC1 [Iaf, [5-Fluoro-3-(pyridin-2-ylsulfanyl)-1H-indol-2-yl]-pyrrolidin-1-yl-methanone]	254 to 255
O=C(c1[nH]c2ccccc2c1Sc1ccccn1)N1CCCC1 [Iag, [3-(Pyridin-2-ylsulfanyl)-1H-indol-2-yl]-pyrrolidin-1-yl-methanone]	213 to 214
NC(=O)c1[nH]c2ccccc2c1Sc1ccccc1 [Ic, 3-Phenylsulfanyl-1H-indole-2-carboxylic acid amide]	197 to 197.5
Cc1ccc(Sc2c(C(=O)N3CCCC3)[nH]c3ccc(F)cc23)cc1 [Iw, (5-Fluoro-3-p-tolylsulfanyl-1H-indol-2-yl)-pyrrolidin-1-yl-methanone]	254 to 255
O=C(c1[nH]c2ccccc2c1Sc1ccccc1)N1CCCCC1 [Ix, (3-Phenylsulfanyl-1H-indol-2yl)-piperidin-1-yl-methanone]	161 to 162
O=C(c1[nH]c2ccc(F)cc2c1Sc1ccccc1)N1CCCC1 [Iy, (5-Fluoro-3-phenylsulfanyl-1H-indol-2-yl)-pyrrolidin-1-yl-methanone]	254 to 255

Molecular target: T1, casein kinase 1ε (Homo sapiens, UniProt P49674)
T1 construct: made in house
T1 sequence (P49674 whole entry): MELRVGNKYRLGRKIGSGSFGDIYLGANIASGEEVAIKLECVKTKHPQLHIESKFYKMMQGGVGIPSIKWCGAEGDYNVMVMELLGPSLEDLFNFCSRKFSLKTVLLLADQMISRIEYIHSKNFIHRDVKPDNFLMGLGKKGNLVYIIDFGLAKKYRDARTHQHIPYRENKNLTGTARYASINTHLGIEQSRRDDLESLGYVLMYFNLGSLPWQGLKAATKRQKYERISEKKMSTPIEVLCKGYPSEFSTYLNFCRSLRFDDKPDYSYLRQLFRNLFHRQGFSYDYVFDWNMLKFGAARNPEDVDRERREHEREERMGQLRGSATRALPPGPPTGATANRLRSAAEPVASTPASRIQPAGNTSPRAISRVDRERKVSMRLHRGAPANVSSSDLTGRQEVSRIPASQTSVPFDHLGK
Assay: Casein Kinase Epsilon 33P-ATP Filter Plate Assay
Type: biochemical
Details: phosphorylation of casein, 33P-ATP with 10 μM cold ATP, 2 hours at room temperature; * denotes average of two or more determinations; read-out: CKIε Inhibition IC50
Protocol: Casein Kinase Epsilon ^33P-ATP Filter Plate Assay for Screening CK1ε Inhibitors Purpose: This assay measures the effect of compounds to inhibit the phosphorylation of the substrate casein by the enzyme casein kinase 1ε using an in vitro ^33P-ATP filtration assay. Compounds are tested at five concentrations in duplicate in order to generate IC50 values or % inhibition at a 10 micromolar concentration that are summarized in Table 4.
Enzyme: • Casein Kinase 1ε final concentration 0.58 mg/ml obtained from fermentation and purification processes as are well known to one skilled in the art. The above are stored as 100 μL aliquots at minus 80° C.
Compounds: • Compounds for testing are supplied as frozen 10 mM compound stock dissolved in 100% DMSO. Assay Conditions:
Final total assay volume per well is equal to 50 μL made up as follows: • 5 μL of diluted compound stock (10, 1, 0.1, 0.01 or 0.001 μM), • 5 μL of dephosphorylated casein final concentration 0.2 μg/μL, • 20 μL of CK1ε final concentration 3 ng/μL, and • 20 μL of γ-^33P-ATP final concentration 0.02 μCi/μL mixed with cold ATP (10 μM final). Methodology: • 1. 500 mL of fresh assay buffer is made: 50 mM Tris pH 7.5, 10 mM MgCl2, 2 mM DTT and 1 mM EGTA • 2. Compounds to be evaluated are obtained as 10 μL of 10 mM stock dissolved in 100% DMSO. Using a Biomek 2000 liquid handling robot, serial dilutions are made to yield 10, 1, 0.1, 0.01 and 0.001 μM final compound dilutions added as 5 μL additions to Falcon U bottom plates. Typically 8 compounds are tested per 96 well plate with column 1 and 12 serving as control wells. A routine screening assay will consist of 32 compounds, which equals 4 assay plates. • 3. Assay plate maps are set up according to the following pattern CKlePlateMap.xls
• 4. Once 5 μL of compound has been added as indicated, 5 μL of dephosphorylated casein (dissolved in distilled H2O)(0.2 μg/μL) and 20 μL CK1ε (3 ng/μL) are added to the appropriate wells. • 5. Finally 20 μL γ-^33P-ATP (0.02 μCi/μL)/10 μM cold ATP are added (equals approximately 2×10^6 CPM per well). • 6. The Falcon U-Bottom assay plate containing the above 50 μL reaction volume is vortexed and then incubated at room temperature for 2 hours. • 7. At the end of 2 hours, the reaction is stopped by the addition of 65 μL of ice cold 2 mM cold ATP (made up in assay buffer) to the assay plates using a Beckman Multimek • 8. At the same time 25 μL 100% ice cold TCA made up in distilled H2O is added to a matching number of Millipore MAPH filter plates. • 9. Using a handheld 8-channel pipettor, 100 μL of the reaction mixture is transferred from the Falcon U-Bottom Plate to the Millipore MAPH filter plates presoaked with TCA. • 10. The Millipore MAPH filter plates are mixed gently and allowed to sit at room temperature for at least 30 minutes to precipitate the proteins. • 11. After 30 minutes the filter plates are placed on a Millipore vacuum manifold and filtered at no more than 8 mm Hg as the MAPH filters tend to “air lock” at higher vacuum settings. • 12. The filter plates are sequentially washed and filtered with 2×150 μL 20% TCA, 2×150 μL 10% TCA and 2×150 μL 5% TCA (total of 6 washes per plate/900 μL per well). • 13. Plates are allowed to dry overnight at room temperature. The next day 40 μL Packard Microscint-20 Scintillation Fluid is added per well using a Titertek Multidrop dispenser; the plates are sealed and counted for 2 minutes/well in a Packard Topcount NXT Scintillation Counter (CPM values/well are captured).
Calculation: • 1. Counts Per Minute (CPM) data is captured and imported into a proprietary data calculation and archiving database (Activity Base by IDBS version 5.0). • 2. Column 1 for each plate reflects total phosphorylation activity of the enzyme in the absence of any inhibiting compound and thus represents 100%. Column 12 reflects any nonspecific phosphorylation/retained radioactivity activity in the absence of inhibiting compound and enzyme. […]

Compound	IC50 [µM]
NC(=O)c1[nH]c2ccc(Cl)cc2c1S(=O)(=O)c1ccccc1 [Ia, 3-Benzensulfonyl-5-chloro-1H-indole-2-carboxylic acid amide]	> 10
NC(=O)c1[nH]c2ccccc2c1S(=O)(=O)c1ccccc1 [Ib, 3-Benzensulfonyl-1H-indole-2-carboxylic acid amide]	2.7
NC(=O)c1[nH]c2ccccc2c1Sc1ccccc1 [Ic, 3-Phenylsulfanyl-1H-indole-2-carboxylic acid amide]	3.1
NC(=O)c1[nH]c2ccc(Br)cc2c1Sc1ccccc1 [Id, 5-Bromo-3-phenylsulfanyl-1H-indole-2-carboxylic acid amide]	0.42
COc1ccc2[nH]c(C(N)=O)c(Sc3ccccc3N)c2c1 [Ie, 3-(2-Amino-phenylsulfanyl)-5-methoxy-1H-indole-2-carboxylic acid amide]	0.18
NC(=O)c1[nH]c2ccccc2c1Sc1cccc(F)c1 [If, 3-(3-Fluoro-phenylsulfanyl)-1H-indole-2-carboxylic acid amide]	0.43
NC(=O)c1[nH]c2ccc(Br)cc2c1Sc1ccccc1N [Ig, 3-(2-Amino-phenylsulfanyl)-5-bromo-1H-indole-2-carboxylic acid amide]	0.12
NC(=O)c1[nH]c2ccccc2c1Sc1ccccc1N [Ih, 3-(2-Amino-phenylsulfanyl)-1H-indole-2-carboxylic acid amide]	0.08
NC(=O)c1[nH]c2ccccc2c1Sc1ccccn1 [Ii, 3-(Pyridin-2-ylsulfanyl)-1H-indole-2-carboxylic acid amide]	187
CNC(=O)c1[nH]c2ccccc2c1Sc1ccccc1 [Ij, 3-Phenylsulfanyl-1H-indole-2-carboxylic Acid Methylamide]	> 10
CNC(=O)c1[nH]c2ccccc2c1Sc1ccccn1 [Ik, 3-(Pyridin-2-ylsulfanyl)-1H-indole-2-carboxylic acid methylamide]	> 10
NC(=O)c1[nH]c2ccccc2c1Oc1ccccc1 [Il, 3-Phenoxy-1H-indole-2-carboxylic acid amide]	> 10
COc1ccc(Oc2c(C(N)=O)[nH]c3ccccc23)cc1 [Im]	5.8
NC(=O)c1[nH]c2ccccc2c1Oc1ccc(F)cc1 [In]	0.89
NC(=O)c1[nH]c2ccccc2c1Oc1ccccc1F [Io]	2.4
NC(=O)c1[nH]c2ccccc2c1Oc1ccc(Cl)cc1 [Ip]	2.8
COc1c(C(N)=O)[nH]c2ccccc12 [Iq, 3-Methoxy-1H-indole-2-carboxylic acid amide]	13.5
CCOc1c(C(N)=O)[nH]c2ccccc12 [Ir, 3-Ethoxy-1H-indole-2-carboxylic acid amide]	8.7
CC(C)Oc1c(C(N)=O)[nH]c2ccccc12 [Is, 3-Isopropoxy-1H-indole-2-carboxylic acid amide]	8.9
CC(C)(C)Oc1c(C(N)=O)[nH]c2ccccc12 [It, 3-tert-Butoxy-1H-indole-2-carboxylic acid amide]	11.7
NC(=O)c1[nH]c2ccccc2c1OCc1ccccc1 [Iu, 3-Benzyloxy-1H-indole-2-carboxylic acid amide]	9.9
